Measured values taken from ChEMBL document CHEMBL3351757, “Design and synthesis of novel and highly-active pan-histone deacetylase (pan-HDAC) inhibitors” (Bioorg Med Chem, 2014).

Assays:
[1] = molecular target: T1, Protein deacetylase HDAC6 (Homo sapiens, UniProt Q9UBN7); assay: Inhibition of human HDAC6 pre-incubated for 30 mins before substrate addition and measured after 30 mins by HDAC-Glo I/II assay
T1 sequence (Q9UBN7 whole entry): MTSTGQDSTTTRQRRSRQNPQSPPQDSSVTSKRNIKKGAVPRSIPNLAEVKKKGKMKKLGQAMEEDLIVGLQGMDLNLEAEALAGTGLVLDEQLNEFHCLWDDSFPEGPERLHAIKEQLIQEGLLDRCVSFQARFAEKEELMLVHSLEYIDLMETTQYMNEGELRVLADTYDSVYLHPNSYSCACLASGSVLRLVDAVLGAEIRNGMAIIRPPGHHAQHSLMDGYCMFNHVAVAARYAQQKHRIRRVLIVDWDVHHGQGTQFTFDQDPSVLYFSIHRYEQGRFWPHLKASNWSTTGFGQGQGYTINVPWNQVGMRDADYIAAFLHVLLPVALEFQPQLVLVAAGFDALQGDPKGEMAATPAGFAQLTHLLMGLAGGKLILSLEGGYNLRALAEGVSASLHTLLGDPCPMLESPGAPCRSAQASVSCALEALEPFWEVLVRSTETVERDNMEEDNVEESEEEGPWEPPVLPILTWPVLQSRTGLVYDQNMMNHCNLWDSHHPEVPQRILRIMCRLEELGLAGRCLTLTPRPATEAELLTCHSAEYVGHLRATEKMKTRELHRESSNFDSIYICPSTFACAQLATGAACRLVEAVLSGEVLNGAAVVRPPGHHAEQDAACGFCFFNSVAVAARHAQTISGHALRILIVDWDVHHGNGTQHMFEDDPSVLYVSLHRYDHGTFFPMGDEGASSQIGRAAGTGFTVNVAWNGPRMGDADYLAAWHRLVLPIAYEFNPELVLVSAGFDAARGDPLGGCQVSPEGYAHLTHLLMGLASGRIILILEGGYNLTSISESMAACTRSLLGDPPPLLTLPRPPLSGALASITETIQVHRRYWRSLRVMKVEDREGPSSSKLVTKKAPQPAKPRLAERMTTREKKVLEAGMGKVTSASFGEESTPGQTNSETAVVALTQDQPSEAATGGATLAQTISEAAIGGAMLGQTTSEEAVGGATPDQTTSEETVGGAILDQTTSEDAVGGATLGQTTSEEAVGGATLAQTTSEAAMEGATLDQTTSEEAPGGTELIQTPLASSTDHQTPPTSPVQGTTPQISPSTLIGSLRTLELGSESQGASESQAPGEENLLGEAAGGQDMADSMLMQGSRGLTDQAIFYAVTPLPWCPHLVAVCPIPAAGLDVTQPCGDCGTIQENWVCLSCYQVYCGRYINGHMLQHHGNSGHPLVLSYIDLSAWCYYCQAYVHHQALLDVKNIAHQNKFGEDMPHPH

[2] = molecular target: T2, Histone deacetylase (Rattus norvegicus) (UniProt Q6P6W3+Q99P99+Q99P96+Q4QQW4+Q99P97+Q5RJZ2+B1WBY8); settings: at 0.1 µM
Description: Inhibition of rat liver HDAC at 0.1 uM pre-incubated for 15 mins before Boc-Lys(Ac)-AMC substrate addition and measured after 30 mins by fluorometry

Histone deacetylase 8 = molecular target: T3, Histone deacetylase 8 (Homo sapiens, UniProt Q9BY41); assay: Inhibition of human HDAC8 pre-incubated for 30 mins before substrate addition and measured after 30 mins by HDAC-Glo I/II assay
T3 sequence (Q9BY41 whole entry): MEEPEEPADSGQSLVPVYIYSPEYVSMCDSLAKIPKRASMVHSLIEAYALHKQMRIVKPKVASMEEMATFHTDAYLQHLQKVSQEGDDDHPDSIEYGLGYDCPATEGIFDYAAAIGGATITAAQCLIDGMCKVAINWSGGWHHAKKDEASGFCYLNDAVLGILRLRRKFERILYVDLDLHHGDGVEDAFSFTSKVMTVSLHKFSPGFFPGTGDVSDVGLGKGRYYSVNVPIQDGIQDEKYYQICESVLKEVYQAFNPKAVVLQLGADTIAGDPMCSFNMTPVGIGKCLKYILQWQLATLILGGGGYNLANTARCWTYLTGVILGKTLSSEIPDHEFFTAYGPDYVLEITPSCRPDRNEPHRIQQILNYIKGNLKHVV

Histone deacetylase 2 = Histone deacetylase 2 (Homo sapiens, UniProt Q92769); assay: Inhibition of human HDAC2 pre-incubated for 30 mins before substrate addition and measured after 30 mins by HDAC-Glo I/II assay
Chain of Histone deacetylase 2 (Q92769 whole entry): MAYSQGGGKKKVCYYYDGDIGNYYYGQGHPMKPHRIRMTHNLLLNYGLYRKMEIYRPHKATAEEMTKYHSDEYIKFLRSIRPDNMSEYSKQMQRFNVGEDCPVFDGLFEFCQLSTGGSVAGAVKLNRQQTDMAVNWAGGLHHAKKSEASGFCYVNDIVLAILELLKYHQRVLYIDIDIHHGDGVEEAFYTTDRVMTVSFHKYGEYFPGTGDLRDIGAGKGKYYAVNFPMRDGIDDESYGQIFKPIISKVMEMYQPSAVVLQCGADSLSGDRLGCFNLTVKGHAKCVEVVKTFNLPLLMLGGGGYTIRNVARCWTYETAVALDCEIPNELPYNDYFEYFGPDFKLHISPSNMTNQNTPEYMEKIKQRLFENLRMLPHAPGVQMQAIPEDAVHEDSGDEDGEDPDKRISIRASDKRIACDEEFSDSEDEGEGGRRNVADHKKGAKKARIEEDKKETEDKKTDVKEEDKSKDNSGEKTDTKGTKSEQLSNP

Histone deacetylase 1 = Histone deacetylase 1 (Homo sapiens, UniProt Q13547); assay: Inhibition of human HDAC1 pre-incubated for 30 mins before substrate addition and measured after 30 mins by HDAC-Glo I/II assay
Chain of Histone deacetylase 1 (Q13547 whole entry): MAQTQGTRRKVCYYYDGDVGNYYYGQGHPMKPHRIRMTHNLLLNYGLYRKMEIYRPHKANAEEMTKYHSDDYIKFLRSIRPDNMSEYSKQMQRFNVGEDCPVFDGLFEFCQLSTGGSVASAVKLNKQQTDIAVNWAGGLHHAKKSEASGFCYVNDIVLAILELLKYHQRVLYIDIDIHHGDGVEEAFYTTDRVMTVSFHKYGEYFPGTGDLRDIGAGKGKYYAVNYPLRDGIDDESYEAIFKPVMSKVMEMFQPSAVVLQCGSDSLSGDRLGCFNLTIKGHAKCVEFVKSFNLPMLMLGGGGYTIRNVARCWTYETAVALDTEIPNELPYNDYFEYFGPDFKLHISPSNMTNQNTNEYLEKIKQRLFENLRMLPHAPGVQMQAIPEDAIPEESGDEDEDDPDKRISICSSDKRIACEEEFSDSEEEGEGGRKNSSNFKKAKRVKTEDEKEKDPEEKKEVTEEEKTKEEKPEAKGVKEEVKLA

Histone deacetylase 9 = Histone deacetylase 9 (Homo sapiens, UniProt Q9UKV0); assay: Inhibition of human HDAC9 pre-incubated for 30 mins before substrate addition and measured after 30 mins by HDAC-Glo I/II assay
Chain of Histone deacetylase 9 (Q9UKV0 whole entry): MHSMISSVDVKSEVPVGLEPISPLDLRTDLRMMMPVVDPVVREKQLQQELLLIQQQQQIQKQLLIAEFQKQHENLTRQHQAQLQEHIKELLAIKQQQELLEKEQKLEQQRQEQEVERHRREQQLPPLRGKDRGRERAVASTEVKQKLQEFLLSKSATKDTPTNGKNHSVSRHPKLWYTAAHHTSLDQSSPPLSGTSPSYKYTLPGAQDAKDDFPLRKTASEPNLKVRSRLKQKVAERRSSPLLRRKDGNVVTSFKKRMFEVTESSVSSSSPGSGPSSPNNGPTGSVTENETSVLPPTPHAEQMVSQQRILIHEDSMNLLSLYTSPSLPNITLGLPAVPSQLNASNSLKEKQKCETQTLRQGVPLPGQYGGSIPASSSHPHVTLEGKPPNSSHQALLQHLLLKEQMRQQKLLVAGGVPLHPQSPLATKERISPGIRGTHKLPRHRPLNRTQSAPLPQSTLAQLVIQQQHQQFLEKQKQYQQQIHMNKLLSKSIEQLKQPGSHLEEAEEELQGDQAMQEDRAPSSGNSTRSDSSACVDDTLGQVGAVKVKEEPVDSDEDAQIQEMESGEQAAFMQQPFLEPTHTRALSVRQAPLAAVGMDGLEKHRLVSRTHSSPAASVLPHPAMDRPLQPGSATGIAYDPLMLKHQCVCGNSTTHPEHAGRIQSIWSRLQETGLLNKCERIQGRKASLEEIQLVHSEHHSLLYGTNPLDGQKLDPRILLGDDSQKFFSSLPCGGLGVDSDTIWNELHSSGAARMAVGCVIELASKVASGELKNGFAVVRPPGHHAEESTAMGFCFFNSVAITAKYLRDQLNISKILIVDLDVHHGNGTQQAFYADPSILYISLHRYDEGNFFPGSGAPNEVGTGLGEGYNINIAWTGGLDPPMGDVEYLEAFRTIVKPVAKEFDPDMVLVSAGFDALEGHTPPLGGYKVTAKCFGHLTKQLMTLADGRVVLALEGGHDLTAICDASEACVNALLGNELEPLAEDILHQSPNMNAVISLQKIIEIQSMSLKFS

[3] = molecular target: T2, Histone deacetylase (Rattus norvegicus); settings: at 10 µM
Description: Inhibition of rat liver HDAC at 10 uM pre-incubated for 15 mins before Boc-Lys(Ac)-AMC substrate addition and measured after 30 mins by fluorometry

Histone deacetylase 4 = Histone deacetylase 4 (Homo sapiens, UniProt P56524); assay: Inhibition of human HDAC4 pre-incubated for 30 mins before substrate addition and measured after 30 mins by HDAC-Glo I/II assay
Chain of Histone deacetylase 4 (P56524 whole entry): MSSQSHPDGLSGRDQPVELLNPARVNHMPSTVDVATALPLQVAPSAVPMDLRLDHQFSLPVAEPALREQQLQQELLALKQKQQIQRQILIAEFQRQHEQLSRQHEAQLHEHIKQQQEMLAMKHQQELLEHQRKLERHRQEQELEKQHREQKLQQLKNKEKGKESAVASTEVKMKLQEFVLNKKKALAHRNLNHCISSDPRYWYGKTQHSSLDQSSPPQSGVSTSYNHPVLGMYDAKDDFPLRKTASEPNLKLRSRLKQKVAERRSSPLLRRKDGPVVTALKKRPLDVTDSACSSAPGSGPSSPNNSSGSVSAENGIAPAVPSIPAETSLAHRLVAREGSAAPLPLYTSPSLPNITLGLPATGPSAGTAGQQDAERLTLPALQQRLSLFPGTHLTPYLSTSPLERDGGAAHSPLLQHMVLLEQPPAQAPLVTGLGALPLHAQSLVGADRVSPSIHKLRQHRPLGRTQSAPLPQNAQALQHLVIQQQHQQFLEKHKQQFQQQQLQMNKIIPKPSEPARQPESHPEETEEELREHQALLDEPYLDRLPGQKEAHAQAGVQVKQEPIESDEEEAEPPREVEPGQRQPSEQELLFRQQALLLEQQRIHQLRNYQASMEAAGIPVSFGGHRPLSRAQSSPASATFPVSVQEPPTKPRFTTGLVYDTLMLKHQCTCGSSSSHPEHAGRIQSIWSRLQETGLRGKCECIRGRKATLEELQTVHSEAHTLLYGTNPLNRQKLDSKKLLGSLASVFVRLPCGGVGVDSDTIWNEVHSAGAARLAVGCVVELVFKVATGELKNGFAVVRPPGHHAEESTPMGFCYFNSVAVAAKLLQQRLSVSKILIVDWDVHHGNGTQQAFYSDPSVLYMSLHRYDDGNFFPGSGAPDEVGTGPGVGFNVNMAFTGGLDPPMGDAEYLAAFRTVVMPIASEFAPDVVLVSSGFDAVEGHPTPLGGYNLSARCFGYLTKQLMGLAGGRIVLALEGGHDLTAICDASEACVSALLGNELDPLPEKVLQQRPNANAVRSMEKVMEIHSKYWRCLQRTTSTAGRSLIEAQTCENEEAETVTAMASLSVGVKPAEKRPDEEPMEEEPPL

Histone deacetylase 3 = Histone deacetylase 3 (Homo sapiens, UniProt O15379); assay: Inhibition of human HDAC3 pre-incubated for 30 mins before substrate addition and measured after 30 mins by HDAC-Glo I/II assay
Chain of Histone deacetylase 3 (O15379 whole entry): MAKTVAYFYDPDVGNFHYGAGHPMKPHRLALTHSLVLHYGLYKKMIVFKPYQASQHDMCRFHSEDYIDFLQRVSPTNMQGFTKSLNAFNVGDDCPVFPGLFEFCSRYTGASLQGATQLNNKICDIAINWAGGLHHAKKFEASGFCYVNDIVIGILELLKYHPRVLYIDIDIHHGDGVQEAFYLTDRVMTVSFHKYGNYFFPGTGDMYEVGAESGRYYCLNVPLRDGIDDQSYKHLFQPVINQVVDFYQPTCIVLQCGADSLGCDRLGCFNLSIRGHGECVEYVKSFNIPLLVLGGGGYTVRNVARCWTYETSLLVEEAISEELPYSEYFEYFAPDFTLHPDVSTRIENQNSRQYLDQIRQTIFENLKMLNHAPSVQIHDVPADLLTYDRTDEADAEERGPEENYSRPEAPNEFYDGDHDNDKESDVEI

For `COc1ccc2cc(C(=O)NCCCCCCC(=O)NO)ccc2n1`, the IC50 [1] was 40 nM, the inhibition [2] was 70% and the IC50 (Histone deacetylase 8) was 80 nM. It also gave an IC50 (Histone deacetylase 2) of 170 nM, an IC50 (Histone deacetylase 1) of 52 nM and an IC50 (Histone deacetylase 9) of 34 nM. It also gave an inhibition [3] of 100%, an IC50 (Histone deacetylase 4) of 78 nM and an IC50 (Histone deacetylase 3) of 28 nM.
`O=C(CCCCCOc1cccc2c1CCC(=O)N2)NO` showed an inhibition [2] of 7% and an inhibition [3] of 86%.
For `O=C(CCCCCNC(=O)c1ccc2c(c1)CCC(=O)N2)NO`, the inhibition [2] was 21% and the inhibition [3] was 94%.
In the case of `CC1(C)CC(=O)Nc2ccc(C(=O)NCc3ccc(/C=C/C(=O)NO)cc3)cc21`, the IC50 [1] is reported as 110 nM, the inhibition [2] is reported as 46% and the IC50 (Histone deacetylase 8) is reported as 49 nM. The IC50 (Histone deacetylase 2) was 22 nM, the IC50 (Histone deacetylase 1) was 66 nM and the IC50 (Histone deacetylase 9) was 37 nM. The inhibition [3] was 98%, the IC50 (Histone deacetylase 4) was 380 nM and the IC50 (Histone deacetylase 3) was 65 nM.
`O=C(CCCCCCC(=O)Nc1ccc2c(c1)CCC(=O)N2)NO` was tested, and the IC50 [1] was 630 nM, the inhibition [2] was 51% and the IC50 (Histone deacetylase 8) was 94 nM. The IC50 (Histone deacetylase 2) was 18 nM, the IC50 (Histone deacetylase 1) was 14 nM and the IC50 (Histone deacetylase 9) was 25 nM. The inhibition [3] was 98%, the IC50 (Histone deacetylase 4) was 120 nM and the IC50 (Histone deacetylase 3) was 91 nM.
With `CC1(C)CC(=O)Nc2cc(C(=O)NCCCCCCC(=O)NO)ccc21` the inhibition [2] was 63% and the inhibition [3] was 99%.
In the case of `O=C(CCCCCCCNC(=O)c1ccc2c(c1)CCC(=O)N2)NO`, the inhibition [2] is reported as 40% and the inhibition [3] is reported as 98%.
Compound `O=C(CCCCCOc1ccc2ccc(=O)[nH]c2c1)NO` has an inhibition [2] of 21% and an inhibition [3] of 93%.
Compound `CC1(C)CC(=O)Nc2ccc(C(=O)NC[C@H]3CC[C@@H](CCC(=O)NO)CC3)cc21` has an IC50 [1] of 530 nM, an inhibition [2] of 27% and an IC50 (Histone deacetylase 8) of 24 nM. For the same compound, the IC50 (Histone deacetylase 2) was 25 nM, the IC50 (Histone deacetylase 1) was 41 nM and the IC50 (Histone deacetylase 9) was 50 nM. For the same compound, the inhibition [3] was 97%, the IC50 (Histone deacetylase 4) was 330 nM and the IC50 (Histone deacetylase 3) was 87 nM.
`O=C(CCCCCCNC(=O)c1ccc2[nH]c(=O)ccc2c1)NO` was tested, and the IC50 [1] was 280 nM, the inhibition [2] was 68% and the IC50 (Histone deacetylase 8) was 73 nM. The IC50 (Histone deacetylase 2) was 25 nM, the IC50 (Histone deacetylase 1) was 24 nM and the IC50 (Histone deacetylase 9) was 46 nM. For the same compound, the inhibition [3] was 100%, the IC50 (Histone deacetylase 4) was 280 nM and the IC50 (Histone deacetylase 3) was 180 nM.
With `O=C(CCCCCCNS(=O)(=O)c1ccc2[nH]c(=O)ccc2c1)NO` the inhibition [2] was 18% and the inhibition [3] was 94%.
With `O=C(CCCCCOc1cccc2c1NC(=O)CC2)NO` the inhibition [2] was 4% and the inhibition [3] was 80%.
`O=C(CCCCCCCC(=O)Nc1ccc2c(c1)CCC(=O)N2)NO` gave an inhibition [2] of 30% and an inhibition [3] of 97%.
Work on `CC1(C)CC(=O)Nc2ccc(NC(=O)CCCCCCC(=O)NO)cc21` yielded an IC50 [1] of 550 nM, an inhibition [2] of 58% and an IC50 (Histone deacetylase 8) of 33 nM. The IC50 (Histone deacetylase 2) was 10 nM, the IC50 (Histone deacetylase 1) was 9.1 nM and the IC50 (Histone deacetylase 9) was 45 nM. It also gave an inhibition [3] of 98%, an IC50 (Histone deacetylase 4) of 47 nM and an IC50 (Histone deacetylase 3) of 89 nM.
`COC1=Nc2ccc(NC(=O)CCCCCCC(=O)NO)cc2C(C)(C)C1` gave an inhibition [2] of 52% and an inhibition [3] of 99%.
With `CCOC1=Nc2ccc(NC(=O)CCCCCCC(=O)NO)cc2C(C)(C)C1` the inhibition [2] was 42% and the inhibition [3] was 97%.
`O=C(CCCCCOc1ccc2oc(=O)ccc2c1)NO` was tested, and the inhibition [2] was 12% and the inhibition [3] was 91%.
With `CC1(C)CC(=O)Nc2c(F)cc(NC(=O)CCCCCCC(=O)NO)cc21` the inhibition [2] was 49% and the inhibition [3] was 99%.
`CN1C(=O)CCc2cc(C(=O)NCCCCCCC(=O)NO)ccc21` was tested, and the inhibition [2] was 51% and the inhibition [3] was 99%.
`O=C(CCCCCCNS(=O)(=O)c1ccc2c(c1)CCC(=O)N2)NO` showed an inhibition [2] of 15% and an inhibition [3] of 94%.
